Measurements reported in US7973047B2, “Beta-Secretase modulators and methods of use” (Amgen Inc., priority 2010, dated 2011).

test system: Aβ40 in conditioned medium of cells stably expressing Amyloid Precursor Protein (APP); assay: BACE cell-based assay: Aβ40 in conditioned medium by sandwich ELISA; conditions: cell based assay data of Table 4; unit inferred; read-out: Cell Assay
In short: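 APP-stable cells grown 24 h in DMEM/10% FBS, then exposed to compounds for 24 h in a 10-point dose series starting at 100 or 10 μM, 0.1% DMSO final. Medium Aβ40 measured by pAb40/biotinylated 6E10 sandwich ELISA with Europium time-resolved fluorescence; IC50 from percent inhibition.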

| IC50 | SMILES |
| --- | --- |
| 1120 nM | CN(C)CC(=O)N[C@@H](Cc1cccc(C#N)c1)[C@H](O)CN[C@H]1CC(C)(C)Oc2ccc(Br)cc21 [compound 528] |
| 849 nM | CC(=O)N[C@@H](Cc1cccc(C#N)c1)[C@H](O)CN[C@H]1CC2(CCC2)Oc2ncc(C(F)(F)F)cc21 [compound 699] |
| 24.2 nM | CC(=O)N[C@@H](Cc1cc(F)cc(F)c1)[C@H](O)CN[C@H]1CC2(CCC2)Oc2c1cc(CC(C)(C)C)nc2OC(C)C [compound 612, N-((1S,2R)-1-((3,5-difluorophenyl)methyl)-3-(((4′S)-6′-(2,2-dimethylpropyl)-8′-((1-methylethyl)oxy)-3′,4′-dihydrospiro[cyclobutane-1,2′-pyrano[2,3-c]pyridin]-4′-yl)amino)-2-hydroxypropyl)acetamide] |
| 7.07 nM | CC(=O)N[C@@H](Cc1cc(F)c(F)c(F)c1)[C@H](O)CN[C@H]1CC2(CCC2)Oc2ncc(CC(C)(C)C)cc21 [compound 686] |
| 50.3 nM | C=C(C)C[C@H](NC(C)=O)[C@H](O)CN[C@H]1CC2(CCC2)Oc2ncc(CC(C)(C)C)cc21 [compound 539, N-((1S)-1-((1R)-2-(((4′S)-6′-(2,2-dimethylpropyl)-3′,4′-dihydrospiro[cyclobutane-1,2′-pyrano[2,3-b]pyridin]-4′-yl)amino)-1-hydroxyethyl)-3-methyl-3-buten-1-yl)acetamide] |
| 8.48 nM | CC(=O)N[C@@H](Cc1ccc(F)cc1)[C@H](O)CN[C@H]1CC2(CCC2)Oc2c1cc(CC(C)(C)C)nc2NC1CCOCC1 [compound 587] |
| 2.42 nM | CC(=O)N[C@@H](Cc1cccc(C#N)c1)[C@H](O)CN[C@H]1CC2(CCC2)Oc2ncc(CC(C)(C)F)cc21 [compound 524] |
| 80.9 nM | CC(=O)N[C@@H](Cc1ccc(F)cc1)[C@H](O)CN[C@H]1CC2(CCC2)Oc2ncc(CC(C)(C)F)cc21 [compound 571] |
| 5.79 nM | COC1CN(c2nc(CC(C)(C)C)cc3c2OC2(CCC2)C[C@@H]3NC[C@@H](O)[C@H](Cc2cccc(F)c2)NC(C)=O)C1 [compound 604] |
| ≥ 10000 nM | CC(=O)N[C@@H](Cc1ccc(F)cc1)[C@H](O)CN[C@H]1C[C@@]2(CC[C@H]2C)Oc2ncc(CC(C)(C)C)cc21 [compound 621] |
| 272 nM | CC(=O)N[C@@H](Cc1ccc(F)cc1)[C@H](O)CN[C@H]1CC2(CCC2)Oc2ncc([C@@H](F)C(C)C)cc21 [compound 553] |
| 3.27 nM | CC(=O)N[C@@H](Cc1cc(F)cc(Cl)c1)[C@H](O)CN[C@H]1CC2(CCC2)Oc2ncc(CC(C)(C)C)cc21 [compound 567] |
| ≥ 10000 nM | CC(=O)N[C@@H](Cc1ccc(Cl)cc1)[C@H](O)CN[C@H]1C[C@@]2(CC[C@H]2C)Oc2ncc(CC(C)(C)C)cc21 [compound 622] |
| 277 nM | CC(=O)N[C@@H](Cc1ccc(F)cc1)[C@H](O)CN[C@H]1CC2(CCC2)Oc2ncc(C(=O)C(C)(C)C)cc21 [compound 697] |
| 64.6 nM | CC(=O)N[C@@H](Cc1cccc(C#N)c1)[C@H](O)CN[C@H]1CC2(CCC2)Cc2ncc(C)cc21 [compound 542, N-((1S,2R)-1-((3-cyanophenyl)methyl)-2-hydroxy-3-(((5′S)-3′-methyl-5′,8′-dihydro-6′H-spiro[cyclobutane-1,7′-quinolin]-5′-yl)amino)propyl)acetamide] |
| 95.8 nM | CCC(CC)Cc1cnc2c(c1)[C@@H](NC[C@@H](O)[C@H](Cc1cc(F)cc(F)c1)NC(C)=O)CC1(CCC1)O2 [compound 691] |
| 308 nM | CC(C)(C)Cc1cnc2c(c1)[C@@H](NC[C@@H](O)[C@H](Cc1ccc(F)cc1)NC(=O)CC(F)(F)F)CC1(CCC1)O2 [compound 632] |
| 38.2 nM | CC(=O)N[C@@H](Cc1ccc(F)cc1)[C@H](O)CN[C@H]1C[C@]2(CC[C@H]2C)Oc2ncc(CC(C)(C)C)cc21 [compound 623] |
| ≥ 10000 nM | CC(=O)N[C@@H](Cc1ccc(F)cc1)[C@H](O)CN[C@H]1CC2(CCCC2)C(=O)c2ccc(CC(C)(C)C)cc21 [compound 563, N-((1S,2R)-3-(((4′S)-6′-(2,2-dimethylpropyl)-1′-oxo-3′,4′-dihydro-1′H-spiro[cyclopentane-1,2′-naphthalen]-4′-yl)amino)-1-((4-fluorophenyl)methyl)-2-hydroxypropyl)acetamide] |
| 33.9 nM | CCc1cc(Br)c2c(c1)[C@@H](NC[C@@H](O)[C@H](Cc1cccc(C#N)c1)NC(C)=O)CC(C)(C)O2 [compound 529] |
| 23.4 nM | CC(=O)N[C@@H](Cc1ccccc1Cl)[C@H](O)CN[C@H]1CC2(CCC2)Oc2ncc(CC(C)(C)C)cc21 [compound 708] |
| 127 nM | CCc1cc2c(s1)CC1(CCC1)C[C@@H]2NC[C@@H](O)[C@H](Cc1ccccc1)NC(C)=O [compound 653, N-((1S,2R)-3-(((4S)-2-ethyl-4,7-dihydro-5H-spiro[1-benzothiophene-6,1′-cyclobutan]-4-yl)amino)-2-hydroxy-1-(phenylmethyl)propyl)acetamide] |
| 59 nM | COC1CN(c2nc(CC(C)(C)C)cc3c2OC2(CCC2)C[C@@H]3NC[C@@H](O)[C@H](Cc2ccc(F)cc2)NC(C)=O)C1 [compound 614] |

same assay, conditions: cell based assay data, Table 4; unit inferred; read-out: Cell Assay

| IC50 | SMILES |
| --- | --- |
| 25.8 nM | CC(=O)N[C@@H](Cc1cccc(F)c1)[C@H](O)CN[C@H]1CC2(CCC2)Oc2cnc(CC(C)(C)F)cc21 [compound 827] |
| 21.4 nM | COc1cc(C[C@H](NC(C)=O)[C@H](O)CN[C@H]2CC3(CCC3)Oc3ncc(CC(C)(C)C)cc32)ccc1Cl [compound 721] |
| 84.8 nM | CC(=O)N[C@@H](Cc1ccccc1)[C@H](O)CN[C@H]1CC2(CCC2)Oc2ncc(CC(F)(F)F)cc21 [compound 841, N-((1S,2R)-2-hydroxy-1-(phenylmethyl)-3-(((4′S)-6′-(2,2,2-trifluoroethyl)-3′,4′-dihydrospiro[cyclobutane-1,2′-pyrano[2,3-b]pyridin]-4′-yl)amino)propyl)acetamide] |
| 3.63 nM | CC(=O)N[C@@H](Cc1cccc(F)c1)[C@H](O)CN[C@H]1CC2(CCC2)Oc2ncc(CC(C)C)cc21 [compound 844] |
| 66.2 nM | CC(=O)N[C@@H](Cc1ccccc1)[C@H](O)CN[C@H]1CC2(CCC2)Oc2ccc(CCCCCO)cc21 [compound 822] |
| 40.1 nM | CC(=O)N[C@@H](Cc1ccc(F)c(F)c1)[C@H](O)CN[C@H]1CC(C)(C)Oc2c1cc(CC(C)(C)C)nc2N1CCCC1 [compound 758] |
| 9.35 nM | CC(=O)N[C@@H](Cc1cccc(C(F)(F)F)c1)[C@H](O)CN[C@H]1CC2(CCC2)Oc2ncc(CC(C)C)cc21 [compound 719] |
| 6.5 nM | CC(=O)N[C@@H](Cc1ccccc1)[C@H](O)CN[C@H]1CC2(CCC2)Oc2c1cc(CC(C)(C)C)nc2N1CCCC1 [compound 755] |
| 137 nM | CC(=O)N[C@@H](Cc1cc(F)cc(F)c1)[C@H](O)CN[C@H]1CC2(CCC2)Oc2ccc(-n3cncn3)cc21 [compound 792] |
| 3.24 nM | CC(=O)N[C@@H](Cc1ccc(F)c(F)c1)[C@H](O)CN[C@H]1CC2(CCC2)Oc2ncc(CC(C)C)cc21 [compound 851] |
| 15.5 nM | CC(=O)N[C@@H](Cc1ccc(F)c(Cl)c1)[C@H](O)CN[C@H]1C[C@]2(C[C@H](C)C2)Oc2ncc(CC(C)(C)C)cc21 [compound 713, N-((1S,2R)-1-((3-chloro-4-fluorophenyl)methyl)-3-(((1s,3R,4′S)-6′-(2,2-dimethylpropyl)-3-methyl-3′,4′-dihydrospiro[cyclobutane-1,2′-pyrano[2,3-b]pyridin]-4′-yl)amino)-2-hydroxypropyl)acetamide] |
| 1940 nM | CC(=O)N[C@@H](Cc1ccc(F)cc1)[C@H](O)CN[C@H]1CC2(CCC2)Oc2cc(F)c(-n3cccn3)cc21 [compound 808] |
| 35.6 nM | CC(=O)N[C@@H](Cc1c(F)ccc(F)c1F)[C@H](O)CN[C@H]1CC2(CCC2)Oc2ncc(CC(C)(C)C)cc21 [compound 870] |
| 9.28 nM | COc1ccc(C[C@H](NC(C)=O)[C@H](O)CN[C@H]2CC3(CCC3)Oc3ncc(CC(C)(C)C)cc32)cc1OC [compound 832] |
| 1.14 nM | CC(=O)N[C@@H](Cc1cc(F)cc(F)c1)[C@H](O)CN[C@H]1C[C@]2(C[C@H](C)C2)Oc2ncc(CC(C)(C)C)cc21 [compound 765, N-((1S,2R)-1-((3,5-difluorophenyl)methyl)-3-(((1s,3R,4′S)-6′-(2,2-dimethylpropyl)-3-methyl-3′,4′-dihydrospiro[cyclobutane-1,2′-pyrano[2,3-b]pyridin]-4′-yl)amino)-2-hydroxypropyl)acetamide] |
| 166 nM | CC(=O)N[C@@H](Cc1ccc(F)cc1)[C@H](O)CN[C@H]1CC(C)(C)Oc2c1cc(CC(C)(C)C)nc2N(C)C [compound 762] |
| 64.1 nM | CCC(=O)N[C@@H](Cc1ccccc1)[C@H](O)CN[C@H]1CC2(CCC2)Oc2cnc(CC(C)(C)C)cc21 [compound 877] |
| 52 nM | CC(=O)N[C@@H](Cc1ccccc1)[C@H](O)CN[C@H]1CC2(CCC2)Oc2nc(F)c(CC(C)C)cc21 [compound 852] |
| 74.1 nM | CC(=O)N[C@@H](Cc1ccccc1)[C@H](O)CN[C@H]1CC2(CCC2)Oc2ncc(C(F)C(C)C(F)(F)F)cc21 (stereo partly shown) [compound 862] |
| 195 nM | CC(=O)N[C@@H](CC1CC1C)[C@H](O)CN[C@H]1CC2(CCC2)Oc2ncc(CC(C)(C)C)cc21 (stereo partly drawn) [compound 723, N-((1S,2R)-3-(((4′S)-6′-(2,2-dimethylpropyl)-3′,4′-dihydrospiro[cyclobutane-1,2′-pyrano[2,3-b]pyridin]-4′-yl)amino)-2-hydroxy-1-((2-methylcyclopropyl)methyl)propyl)acetamide] |
| 40.8 nM | C=CCC[C@H](NC(C)=O)[C@H](O)CN[C@H]1CC2(CCC2)Oc2ncc(CC(C)(C)C)cc21 [compound 715] |

same assay, conditions: cells stably expressing APP, 24 h incubation with compound, Aβ40 in supernatant by sandwich ELISA; read-out: IC50 values in the cell-based assay (inhibition or reduction of Aβ40)

| IC50 | SMILES |
| --- | --- |
| ≤ 5000 nM | CC(=O)N[C@@H](Cc1cc(F)cc(F)c1)[C@H](O)CN[C@H]1C[C@@]2(CCOC2)Oc2c(Br)cc(Cl)cc21 [Example 249] |

same assay, conditions: read-out: Cell Assay

| SMILES | IC50 |
| --- | --- |
| CC(C)(C)Cc1cnc2c(c1)[C@@H](NC[C@@H](O)[C@H](Cc1ccc(F)cc1)NC(=O)CF)CC1(CCC1)O2 [compound 629] | 12.6 nM |
